T/C data for 19 molecules are collected here from PubChem BioAssay AID330 (DTP/NCI, 2004).

For the assay, the system named is P388 leukemia ip, CD2F1 mice, survival T/C. Kind of assay: NCI In Vivo Anticancer Drug Screen. Data for tumor model P388 Leukemia (intraperitoneal) in CD2F1 (CDF1) mice. The settings on record: endpoint: median survival time, higher = longer survival. In outline: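 Mice carrying the transplanted tumor received test compound or vehicle. Survival was recorded in each group, and the value is the treated-group measurement divided by that of the vehicle-treated control group.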

Where [1] appears, read: dose: 60.0 mg/kg/injection, schedule: Q01DX005 (ip), vehicle: Klucel (hydroxypropylcellulose) (HPC).
Setting [2] is: dose: 120.0 mg/kg/injection, schedule: Q01DX005 (ip), vehicle: Klucel (hydroxypropylcellulose) (HPC).
The mark [3] stands for this setting: dose: 240.0 mg/kg/injection, schedule: Q01DX005 (ip), vehicle: Klucel (hydroxypropylcellulose) (HPC).
The mark [4] stands for this setting: dose: 50.0 mg/kg/injection, schedule: Q01DX005 (ip), vehicle: saline with Tween-80.
Where [5] appears, read: dose: 100.0 mg/kg/injection, schedule: Q01DX005 (ip), vehicle: saline with Tween-80.
Where [6] appears, read: dose: 100.0 mg/kg/injection, schedule: Q01DX001 (ip), vehicle: saline with Tween-80.
The mark [7] stands for this setting: dose: 200.0 mg/kg/injection, schedule: Q01DX001 (ip), vehicle: saline with Tween-80.
The mark [8] stands for this setting: dose: 400.0 mg/kg/injection, schedule: Q01DX001 (ip), vehicle: saline with Tween-80.
Where [9] appears, read: dose: 60.0 mg/kg/injection, schedule: Q01DX005 (ip), vehicle: saline with Tween-80.
The mark [10] stands for this setting: dose: 120.0 mg/kg/injection, schedule: Q01DX005 (ip), vehicle: saline with Tween-80.

“And” between values parts separate entries of the source, which are not always exact repeats. Identical values can stand only once. Toxic doses and inconclusive results are not listed.

Take `C=C(C)C12CC(COC(=O)c3ccccc3)C34OC5(OC1C3C1OC1(CO)C(O)C1(O)C(OC(=O)c3ccccc3)C(C)C(C(C)CCCCCCC5O)C14)O2` (stereo not given): the T/C was 104 % of control (dose: 0.8 micrograms/kg/injection, schedule: Q01DX009 (ip), vehicle: Klucel (hydroxypropylcellulose) (HPC)); 99 % of control (dose: 1.5 micrograms/kg/injection, schedule: Q01DX009 (ip), vehicle: saline); 110 % of control (dose: 1.6 micrograms/kg/injection, schedule: Q01DX009 (ip), vehicle: Klucel (hydroxypropylcellulose) (HPC)); 99 % of control (dose: 3.1 micrograms/kg/injection, schedule: Q01DX009 (ip), vehicle: saline); 102 % of control (dose: 3.2 micrograms/kg/injection, schedule: Q01DX009 (ip), vehicle: Klucel (hydroxypropylcellulose) (HPC)); 96 % of control (dose: 6.2 micrograms/kg/injection, schedule: Q01DX009 (ip), vehicle: saline). Moreover, the T/C (dose: 6.3 micrograms/kg/injection, schedule: Q01DX009 (ip), vehicle: Klucel (hydroxypropylcellulose) (HPC)) is 98 % of control; the T/C (dose: 12.5 micrograms/kg/injection, schedule: Q01DX009 (ip), vehicle: Klucel (hydroxypropylcellulose) (HPC)) is 112 % of control; the T/C (dose: 12.5 micrograms/kg/injection, schedule: Q01DX009 (ip), vehicle: saline with Tween-80) is 89 % of control; the T/C (dose: 12.5 micrograms/kg/injection, schedule: Q01DX009 (ip), vehicle: saline) is 124 % of control; the T/C (dose: 25.0 micrograms/kg/injection, schedule: Q01DX009 (ip), vehicle: Klucel (hydroxypropylcellulose) (HPC)) is 102 % of control; the T/C (dose: 25.0 micrograms/kg/injection, schedule: Q01DX009 (ip), vehicle: saline with Tween-80) was 96 % of control. The T/C runs as follows: (dose: 25.0 micrograms/kg/injection, schedule: Q01DX009 (ip), vehicle: saline) 150 % of control; (dose: 50.0 micrograms/kg/injection, schedule: Q01DX009 (ip), vehicle: Klucel (hydroxypropylcellulose) (HPC)) 101 % of control; (dose: 50.0 micrograms/kg/injection, schedule: Q01DX009 (ip), vehicle: saline) 157 % of control and 159 % of control; (dose: 100.0 micrograms/kg/injection, schedule: Q01DX009 (ip), vehicle: Klucel (hydroxypropylcellulose) (HPC)) 104 % of control; (dose: 200.0 micrograms/kg/injection, schedule: Q01DX009 (ip), vehicle: Klucel (hydroxypropylcellulose) (HPC)) 110 % of control.

Regarding `CCOC(=O)C(C)(C)S(=O)(=O)Nc1ccccc1`, the T/C by setting is: under setting [1], 105 % of control; under setting [2], 102 % of control; under setting [3], 102 % of control.

Consider `C=CCc1cc(C(CC)C(CC)c2ccc(OCCN(CC)CC)c(CC=C)c2)ccc1OCCN(CC)CC` (stereo not given), for which the T/C under setting [4] is 95 % of control; the T/C under setting [5] is 98 % of control; the T/C (dose: 200.0 mg/kg/injection, schedule: Q01DX005 (ip), vehicle: saline with Tween-80) was 101 % of control.

Take `C[N+](C)(C)CCC[N+]1(C)CC2CCCCC2C1` (stereo not given): the T/C is 107 % of control (dose: 50.0 mg/kg/injection, schedule: Q01DX005 (ip), vehicle: saline); 98 % of control (dose: 100.0 mg/kg/injection, schedule: Q01DX005 (ip), vehicle: saline); 101 % of control (dose: 200.0 mg/kg/injection, schedule: Q01DX005 (ip), vehicle: saline).

Turning to `C=C1C(=O)OCC1C(=O)OCC` (stereo not given), the T/C was 103 % of control (dose: 100.0 mg/kg/injection, schedule: Q04DX003 (ip), vehicle: saline with Tween-80); 107 % of control (dose: 200.0 mg/kg/injection, schedule: Q04DX003 (ip), vehicle: saline with Tween-80); 98 % of control (dose: 400.0 mg/kg/injection, schedule: Q04DX003 (ip), vehicle: saline with Tween-80).

Consider `CN(CN(C)N=Nc1ccc(Cl)cc1)CN(C)N=Nc1ccc(Cl)cc1`, for which the T/C under setting [1] is 104 % of control, the T/C under setting [2] was 110 % of control and the T/C under setting [3] is 110 % of control.

`COC(=O)C(Cl)(Cl)C1(c2ccccc2)OCC(C)(C)N1C(=O)C(Cl)Cl` (stereo not given): the T/C was 100 % of control under setting [6], 100 % of control under setting [7] and 100 % of control under setting [8].

Consider `COc1cc2c(=O)n3c4c(cccc4c2cc1OC)CC3`, for which the T/C is 98 % of control (dose: 25.0 mg/kg/injection, schedule: Q01DX009 (ip), vehicle: other); 91 % of control (dose: 50.0 mg/kg/injection, schedule: Q01DX009 (ip), vehicle: other); 91 % of control (dose: 100.0 mg/kg/injection, schedule: Q01DX009 (ip), vehicle: other); 89 % of control (dose: 200.0 mg/kg/injection, schedule: Q01DX009 (ip), vehicle: other); 96 % of control (dose: 400.0 mg/kg/injection, schedule: Q01DX009 (ip), vehicle: other).

Regarding `O=C(NCc1nc2ncc(Br)cc2[nH]1)c1ccccc1`, the T/C is, setting by setting: under setting [6], 100 % of control; under setting [7], 100 % of control; under setting [8], 98 % of control.

Regarding `CCOc1ccc2nc3cc(N)ccc3c(N)c2c1`, the T/C runs as follows: (dose: 44.0 mg/kg/injection, schedule: Q04DX003 (ip), vehicle: saline) 118 % of control; (dose: 66.0 mg/kg/injection, schedule: Q04DX003 (ip), vehicle: saline) 118 % of control; (dose: 100.0 mg/kg/injection, schedule: Q04DX003 (ip), vehicle: saline) 118 % of control; (dose: 150.0 mg/kg/injection, schedule: Q04DX003 (ip), vehicle: saline) 118 % of control.

Consider `Cc1ccc(C(=O)Nc2c(C)cccc2C)cc1`, for which the T/C was 98 % of control under setting [9] and 92 % of control under setting [10].

With `CN1CCC(/C=C/c2ccc(Cl)c(Cl)c2)CN1` (stereo not given) (tested in a mixture with another compound), the T/C is 100 % of control and 95 % of control (dose: 25.0 mg/kg/injection, schedule: Q01DX001 (ip), vehicle: saline); 100 % of control (dose: 50.0 mg/kg/injection, schedule: Q01DX001 (ip), vehicle: saline); 104 % of control and 93 % of control (dose: 100.0 mg/kg/injection, schedule: Q01DX001 (ip), vehicle: saline); 116 % of control (dose: 100.0 mg/kg/injection, schedule: Q01DX001 (ip), vehicle: suspension in saline).

On to `CCCCCCCCCCCCCCCC[N+](C)(C)CC#N`, for which the T/C is 100 % of control (dose: 12.5 mg/kg/injection, schedule: Q01DX009 (ip), vehicle: saline) and 89 % of control (dose: 25.0 mg/kg/injection, schedule: Q01DX009 (ip), vehicle: saline).

With `COc1ccc(CSC(=S)Nc2ccc(F)c(F)c2)cc1`, the T/C (dose: 50.0 mg/kg/injection, schedule: Q01DX009 (ip), vehicle: suspension in saline) was 108 % of control; the T/C (dose: 100.0 mg/kg/injection, schedule: Q01DX009 (ip), vehicle: suspension in saline) was 106 % of control; the T/C (dose: 200.0 mg/kg/injection, schedule: Q01DX009 (ip), vehicle: suspension in saline) was 99 % of control.

`CC1(C)C=C(O)C(=O)C(O)=C1`: the T/C runs as follows: (dose: 15.0 mg/kg/injection, schedule: Q01DX005 (ip), vehicle: Klucel (hydroxypropylcellulose) (HPC)) 102 % of control; (dose: 30.0 mg/kg/injection, schedule: Q01DX005 (ip), vehicle: Klucel (hydroxypropylcellulose) (HPC)) 102 % of control; (dose: 50.0 mg/kg/injection, schedule: Q01DX005 (ip), vehicle: Klucel (hydroxypropylcellulose) (HPC)) 116 % of control; under setting [1], 103 % of control.

Turning to `CC1CN1C1=C(Cl)C(=O)C(N2CC2C)=C(Cl)C1=O` (stereo not given), the T/C (dose: 3.12 mg/kg/injection, schedule: Q01DX009 (ip), vehicle: Klucel (hydroxypropylcellulose) (HPC)) is 115 % of control.

As for `O=C(Nc1ccc(Cl)cc1)Nc1nnc(/C=C/c2ccccc2)o1`, the T/C was 96 % of control under setting [9] and 96 % of control under setting [10].

Consider `C1CCC(CCCCc2nn[nH]n2)CC1`, for which the T/C reads like this: under setting [4], 102 % of control; under setting [5], 100 % of control.

Turning to `COCN1C(=O)CN=C(c2ccccc2)c2cc([N+](=O)[O-])ccc21`, the T/C (dose: 50.0 mg/kg/injection, schedule: Q01DX009 (ip), vehicle: Klucel (hydroxypropylcellulose) (HPC)) was 100 % of control; the T/C (dose: 100.0 mg/kg/injection, schedule: Q01DX009 (ip), vehicle: Klucel (hydroxypropylcellulose) (HPC)) is 101 % of control; the T/C (dose: 200.0 mg/kg/injection, schedule: Q01DX009 (ip), vehicle: Klucel (hydroxypropylcellulose) (HPC)) is 98 % of control.
